Reference: US20230257372A1 (CHONG KUN DANG PHARMACEUTICAL CORP., priority 2020, published 2023)
Read-outs that look alike come from different tables or passages of the source.

Tests used:
human recombinant HDAC6 = target: T1, human recombinant HDAC6 (Homo sapiens, UniProt Q9UBN7); assay: HDAC6 enzyme activity inhibition (HDAC Fluorimetric Drug Discovery Kit); assay type: biochemical
T1 construct: purchased Calbiochem Inc. 382180
T1 sequence (Q9UBN7 1-1215): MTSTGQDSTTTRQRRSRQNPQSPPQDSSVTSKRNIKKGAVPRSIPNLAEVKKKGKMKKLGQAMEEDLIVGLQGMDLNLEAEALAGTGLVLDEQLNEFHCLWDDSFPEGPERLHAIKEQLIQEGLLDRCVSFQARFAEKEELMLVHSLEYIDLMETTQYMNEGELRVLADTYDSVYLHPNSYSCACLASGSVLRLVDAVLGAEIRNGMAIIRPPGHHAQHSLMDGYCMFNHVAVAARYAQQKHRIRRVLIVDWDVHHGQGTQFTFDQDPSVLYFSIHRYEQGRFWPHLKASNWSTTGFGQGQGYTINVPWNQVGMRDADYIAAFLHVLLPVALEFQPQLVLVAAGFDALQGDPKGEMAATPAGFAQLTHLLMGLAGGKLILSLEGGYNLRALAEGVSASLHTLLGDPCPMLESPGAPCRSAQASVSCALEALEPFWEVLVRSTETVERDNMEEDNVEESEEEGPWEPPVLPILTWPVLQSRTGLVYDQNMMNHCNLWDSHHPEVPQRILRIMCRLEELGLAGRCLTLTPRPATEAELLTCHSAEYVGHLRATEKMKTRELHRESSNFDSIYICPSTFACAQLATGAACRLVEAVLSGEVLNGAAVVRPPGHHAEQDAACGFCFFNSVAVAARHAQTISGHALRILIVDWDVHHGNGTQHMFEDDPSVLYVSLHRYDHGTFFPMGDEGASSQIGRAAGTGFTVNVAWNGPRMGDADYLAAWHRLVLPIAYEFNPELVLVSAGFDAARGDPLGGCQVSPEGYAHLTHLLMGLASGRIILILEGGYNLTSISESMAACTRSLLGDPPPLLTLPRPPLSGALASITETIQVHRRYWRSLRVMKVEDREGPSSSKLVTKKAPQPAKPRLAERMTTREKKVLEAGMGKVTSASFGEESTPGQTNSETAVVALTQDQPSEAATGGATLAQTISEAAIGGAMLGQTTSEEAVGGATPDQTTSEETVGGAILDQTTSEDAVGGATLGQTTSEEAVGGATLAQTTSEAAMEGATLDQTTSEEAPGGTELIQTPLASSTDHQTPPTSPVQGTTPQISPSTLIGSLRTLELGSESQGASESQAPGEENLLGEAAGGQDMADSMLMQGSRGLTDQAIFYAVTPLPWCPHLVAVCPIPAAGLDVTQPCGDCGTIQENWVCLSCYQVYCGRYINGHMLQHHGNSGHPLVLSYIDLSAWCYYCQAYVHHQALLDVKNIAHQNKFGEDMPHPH
Experimental: (§1) An experiment was conducted to identify the selectivity of the compound represented by formula I of the present invention to HDAC6 through an experiment on HDAC1 and HDAC6 enzyme activity inhibition.
(§2) A 5-fold dilution of the compound was divided into a 96-well plate, after which […] of the enzyme and 10 μM of the substrate were inserted into each well and subjected to reaction at 30° C. for 60 minutes, such that Fluor de Lys® Developer II (BML-KI176) was inserted thereinto and subjected to reaction for 30 minutes and finished.

human recombinant HDAC1 = target: T2, human recombinant HDAC1 (Homo sapiens, UniProt Q13547); assay: HDAC1 enzyme activity inhibition (HDAC Fluorimetric Drug Discovery Kit); assay type: biochemical; settings: read-out: HDAC1
T2 construct: purchased Enzo Life Science, Inc. BML-SE456
T2 sequence (Q13547 whole entry): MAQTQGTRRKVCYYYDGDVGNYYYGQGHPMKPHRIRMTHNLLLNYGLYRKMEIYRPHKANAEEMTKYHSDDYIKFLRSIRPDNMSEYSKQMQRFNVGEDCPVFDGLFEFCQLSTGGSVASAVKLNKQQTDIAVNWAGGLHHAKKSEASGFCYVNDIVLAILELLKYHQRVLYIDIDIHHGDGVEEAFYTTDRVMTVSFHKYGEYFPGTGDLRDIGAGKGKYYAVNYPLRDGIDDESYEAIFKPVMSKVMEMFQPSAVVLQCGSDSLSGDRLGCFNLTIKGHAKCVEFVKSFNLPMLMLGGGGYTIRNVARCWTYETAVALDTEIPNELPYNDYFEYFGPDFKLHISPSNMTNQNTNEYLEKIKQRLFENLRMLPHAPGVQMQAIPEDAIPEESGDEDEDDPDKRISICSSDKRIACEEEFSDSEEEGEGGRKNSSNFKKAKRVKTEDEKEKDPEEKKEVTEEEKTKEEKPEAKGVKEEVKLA
Experimental: as §1, §2

[1] = human recombinant HDAC6, same protocol as HDAC1
[2] = human recombinant HDAC1, Fluor de Lys substrate, 30° C. 60 minutes
[3] = human recombinant HDAC6, IC50 calculated with GraphPad Prism
[4] = human recombinant HDAC1, IC50 calculated with GraphPad Prism

Row | HDAC6 selectivity (fold) (human recombinant HDAC6; HDAC6 over HDAC1) | IC50 (human recombinant HDAC6; [1]) [µM] | IC50 (human recombinant HDAC1; [2]) [µM] | HDAC6 selectivity (fold) (human recombinant HDAC6; HDAC1 IC50 / HDAC6 IC50) | IC50 (human recombinant HDAC6; [3]) [µM] | IC50 (human recombinant HDAC1; [4]) [µM] | SMILES
1 | 449 | 0.111 | > 50 |  |  |  | CCN1Cc2cccc(-c3cn(Cc4ccc(-c5nnc(C(F)F)o5)cc4)nn3)c2C1 [Compound 4530, 2-(difluoromethyl)-5-(4-((4-(2-ethylisoindolin-4-yl)-1H-1,2,3-triazol-1-yl)methyl)phenyl)-1,3,4-oxadiazole]
2 | 539 | 0.0927 | > 50 |  |  |  | Fc1cc(-c2nnc(C(F)F)o2)ccc1Cn1cc(-c2cccc3c2CN(C2COC2)C3)nn1 [Compound 4538, 2-(difluoromethyl)-5-(3-fluoro-4-((4-(2-(oxetan-3-yl)isoindolin-4-yl)-1H-1,2,3-triazol-1-yl)methyl)phenyl)-1,3,4-oxadiazole]
3 |  |  |  | 1106 | 0.0452 | > 50 | CCN1CC(N2CCC(c3cccc(-c4cn(Cc5ccc(-c6nnc(C(F)F)o6)cc5F)nn4)c3)CC2)C1 [Compound 4295, 2-(difluoromethyl)-5-(4-((4-(3-(1-(1-ethylazetidin-3-yl)piperidin-4-yl)phenyl)-1H-1,2,3-triazol-1-yl)methyl)-3-fluorophenyl)-1,3,4-oxadiazole]
4 |  |  |  | 170 | 0.294 | > 50 | FC(F)c1nnc(-c2ccc(Cn3cc(-c4cccc(NC5CCCCC5)c4)nn3)cc2)o1 [Compound 4324, N-cyclohexyl-3-(1-(4-(5-(difluoromethyl)-1,3,4-oxadiazol-2-yl)benzyl)-1H-1,2,3-triazol-4-yl)aniline]
5 |  |  |  | 632 | 0.0791 | > 50 | Fc1ccc(N2CCN(C3CCC3)CC2)cc1-c1cn(Cc2ccc(-c3nnc(C(F)F)o3)cc2)nn1 [Compound 4454, 2-(4-((4-(5-(4-cyclobutylpiperazin-1-yl)-2-fluorophenyl)-1H-1,2,3-triazol-1-yl)methyl)phenyl)-5-(difluoromethyl)-1,3,4-oxadiazol]
6 |  |  |  | 2604 | 0.0192 | > 50 | Fc1ccc(N2CCNCC2)cc1-c1cn(Cc2ccc(-c3nnc(C(F)F)o3)cc2)nn1 [Compound 4450, 2-(difluoromethyl)-5-(4-((4-(2-fluoro-5-(piperazin-1-yl)phenyl)-1H-1,2,3-triazol-1-yl)methyl)phenyl)-1,3,4-oxadiazole]
7 | 4672 | 0.0107 | > 50 |  |  |  | CC(C)N1CC(c2cccc(-c3cn(Cc4ccc(-c5nnc(C(F)F)o5)cn4)nn3)c2)C1 [Compound 4503, 2-(difluoromethyl)-5-(6-((4-(3-(1-isopropylazetidin-3-yl)phenyl)-1H-1,2,3-triazol-1-yl)methyl)pyridin-3-yl)-1,3,4-oxadiazole]
8 |  |  |  | 294 | 0.17 | > 50 | CC(C)(C)OC(=O)N1CCC(c2cn(Cc3ccc(-c4nnc(C(F)F)o4)cn3)nn2)C1 (stereo not drawn) [Compound 3820, Tert-butyl 3-(1-((5-(5-(difluoromethyl)-1,3,4-oxadiazol-2-yl)pyridin-2-yl)methyl)-1H-1,2,3-triazol-4-yl)pyrrolidin-1-carboxylate]
9 | 1126 | 0.0444 | > 50 |  |  |  | Fc1cc(-c2nnc(C(F)F)o2)ccc1Cn1cc(-c2cccc(Br)n2)nn1 [Compound 17263, 2-(4-((4-(6-bromopyridin-2-yl)-1H-1,2,3-triazol-1-yl)methyl)-3-fluorophenyl)-5-(difluoromethyl)-1,3,4-oxadiazole]
10 | 413 | 0.121 | > 50 |  |  |  | CN1CCc2cc(-c3cn(Cc4ccc(-c5nnc(C(F)F)o5)cc4F)nn3)sc2C1 [Compound 4500, 2-(difluoromethyl)-5-(3-fluoro-4-((4-(6-methyl-4,5,6,7-tetrahydrothieno[2,3-c]pyridin-2-yl)-1H-1,2,3-triazol-1-yl)methyl)phenyl)-1,3,4-oxadiazole]
11 | 3571 | 0.0142 | > 50 |  |  |  | CCN1CC(c2cccc(-c3cn(Cc4ccc(-c5nnc(C(F)F)o5)cn4)nn3)c2)C1 [Compound 4502, 2-(difluoromethyl)-5-(6-((4-(3-(1-ethylazetidin-3-yl)phenyl)-1H-1,2,3-triazol-1-yl)methyl)pyridin-3-yl)-1,3,4-oxadiazole]
12 |  |  |  | 253 | 0.198 | > 50 | FC(F)c1nnc(-c2ccc(Cn3cc(C4CCN(C5COC5)CC4)nn3)nc2)o1 [Compound 3809, 2-(difluoromethyl)-5-(6-((4-(1-(oxetan-3-yl)piperidin-4-yl)-1H-1,2,3-triazol-1-yl)methyl)pyridin-3-yl)-1,3,4-oxadiazole]
13 |  |  |  | 943 | 0.053 | > 50 | CCN1CCN(C(=O)c2cccc(-c3cn(Cc4ccc(-c5nnc(C(F)F)o5)cn4)nn3)c2)CC1 [Compound 4482, (3-(1-((5-(5-(difluoromethyl)-1,3,4-oxadiazol-2-yl)pyridin-2-yl)methyl)-1H-1,2,3-triazol-4-yl)phenyl)(4-ethylpiperazin-1-yl)methanone]
14 | 1336 | 0.0374 | > 50 |  |  |  | FC(F)c1nnc(-c2ccc(Cn3cc(-c4ccc5c(c4)CN(C4CCC4)C5)nn3)nc2)o1 [Compound 4542, 2-(6-((4-(2-cyclobutylisoindolin-5-yl)-1H-1,2,3-triazol-1-yl)methyl)pyridin-3-yl)-5-(difluoromethyl)-1,3,4-oxadiazole]
15 |  |  |  | 965 | 0.0518 | > 50 | FC(F)c1nnc(-c2ccc(Cn3cc(-c4ccncc4)nn3)nc2)o1 [Compound 3837, 2-(difluoromethyl)-5-(6-((4-(pyridin-4-yl)-1H-1,2,3-triazol-1-yl)methyl)pyridin-3-yl)-1,3,4-oxadiazole]
16 |  |  |  | 117 | 0.424 | > 50 | OCCCc1cn(Cc2ccc(-c3nnc(C(F)F)o3)cn2)nn1 [Compound 3833, 3-(1-((5-(5-(difluoromethyl)-1,3,4-oxadiazol-2-yl)pyridin-2-yl)methyl)-1H-1,2,3-triazol-4-yl)propan-1-ol]
17 |  |  |  | 5882 | 0.0085 | > 50 | FC(F)c1nnc(-c2ccc(Cn3cc(-c4ccc5[nH]ncc5c4)nn3)nc2)o1 [Compound 4343, 2-(6-((4-(1H-indazol-5-yl)-1H-1,2,3-triazol-1-yl)methyl)pyridin-3-yl)-5-(difluoromethyl)-1,3,4-oxadiazole]
18 |  |  |  | 1373 | 0.0364 | > 50 | CN1C[C@@H]2C[C@H]1CN2c1cccc(-c2cn(Cc3ccc(-c4nnc(C(F)F)o4)cc3F)nn2)c1 [Compound 4318, 2-(difluoromethyl)-5-(3-fluoro-4-((4-(3-((1S,4S)-5-methyl-2,5-diazabicyclo[2.2.1]heptan-2-yl)phenyl)-1H-1,2,3-triazol-1-yl)methyl)phenyl)-1,3,4-oxadiazole]
19 | 2512 | 0.0199 | > 50 |  |  |  | Fc1cc(-c2nnc(C(F)F)o2)ccc1Cn1cc(-c2ccc(CN3CC[C@@H](F)C3)cc2)nn1 [Compound 4607, (R)-2-(difluoromethyl)-5-(3-fluoro-4-((4-(4-((3-fluoropyrrolidin-1-yl)methyl)phenyl)-1H-1,2,3-triazol-1-yl)methyl)phenyl)-1,3,4-oxadiazole]
20 |  |  |  | 846 | 0.0591 | > 50 | CC(C)(F)C(=O)Nc1cccc(-c2cn(Cc3ccc(-c4nnc(C(F)F)o4)cc3)nn2)c1 [Compound 4328, N-(3-(1-(4-(5-(difluoromethyl)-1,3,4-oxadiazol-2-yl)benzyl)-1H-1,2,3-triazol-4-yl)phenyl)-2-fluoro-2-methylpropanamide]
